These results are taken from article PMC3665789 (PLoS ONE, 2013).

The test system of series [1] is HSV-1 TK^- RV-117 (clinical isolate). The conditions noted are these: HEL cells, CPE.
In another series the test system is PBMCs. As to the kind of experiment: Activation markers CD25 and CD69 on PBMCs (flow cytometry). The series is classed as cell-based. The conditions noted are these: 3 days, LabyA1 9.6 µM, PHA 0.016 µM. The protocol:
The effects of 9.6 µM LabyA1 and 0.016 µM PHA on the expression levels of the cellular activation markers CD25 and CD69 on PBMCs was measured after 3 days of incubation at 37°C. After washing with PBS/FCS2%, cells were incubated with anti-CD4 conjugated with PerCP (BD Biosciences) and co-stained with the PE-conjugated mAbs anti-CD25 or anti-CD69 (both BD Biosciences) for 30 min at 4°C. For aspecific background staining, cells were incubated with SimulTest™ Control (IgGγ1-FITC/IgGγ2a-PE). After washing, and fixation with 1% formaldehyde solution, samples were analyzed using the FACSCalibur and CellQuest software (BD Biosciences).

Another series has as its system Lactobacillus strains. The series is described as follows: Vaginal Lactobacillus growth assay. The series is classed as cell-based. The conditions noted are these: dose up to 120 µM; 24 h, OD600. The protocol: Lactobacillus strains grown overnight to stationary phase (OD600 nm ∼1.8–2.0) were used as inocula for the assay. The assay was performed in 96-well microtiter plates. Sterile wells were filled with 200 µl MRS (de Man – Rogosa – Sharpe) medium (BD Biosciences). About 0.5×10^7 colony forming units or CFUs (1/100 of an overnight culture) were added and then 5-fold dilution series of different concentrations of the used compounds were administered. The plates were incubated without shaking for 24 h at 37°C. The OD600 nm was measured after 24 h and as a negative control, each strain was grown in medium without compound (Petrova et al., in preparation).

The target in series [2] is T1, CXCR4 (Homo sapiens, UniProt P61073). As to the kind of experiment: Intracellular calcium mobilization (FLIPR), U87.CD4.CXCR4 cells. The format is cell-based. The arrangement: expressed in transfected cells; host or cells: U87.CD4.CXCR4 (human astroglioma U87). The conditions noted are these: 9.6 µM. The protocol: (§1) Calcium (Ca^2+) mobilization assays were performed by the use of a fluorometric imaging plate reader (FLIPR) (Molecular Devices, Sunnyvale, CA) as described previously. Briefly, U87.CD4.CCR5 or U87.CD4.CXCR4 cells were digested by trypsin and seeded in gelatine-coated black-wall 96-well microplates at 2×10^4 cells per well. The next day, the cells were loaded with the fluorescent calcium indicator Fluo-3 acetoxymethyl ester (Molecular Probes, Leiden, The Netherlands) at 4 µM for 45 min at 37°C. Cells were washed 3 times in assay buffer (Hanks’ balanced salt solution with 20 mM HEPES buffer and 0.2% bovine serum albumin, pH 7.4) and incubated for 10 min with Laby A1. The intracellular calcium mobilization induced by LD78β in U87.CD4.CCR5 cells or by SDF-1 in U87.CD4.CXCR4 cells was then measured at 37°C by monitoring the fluorescence as a function of time simultaneously in all the wells. In addition, potential intracellular calcium mobilization induced by Laby A1 was also investigated.
T1 sequence (P61073 whole entry): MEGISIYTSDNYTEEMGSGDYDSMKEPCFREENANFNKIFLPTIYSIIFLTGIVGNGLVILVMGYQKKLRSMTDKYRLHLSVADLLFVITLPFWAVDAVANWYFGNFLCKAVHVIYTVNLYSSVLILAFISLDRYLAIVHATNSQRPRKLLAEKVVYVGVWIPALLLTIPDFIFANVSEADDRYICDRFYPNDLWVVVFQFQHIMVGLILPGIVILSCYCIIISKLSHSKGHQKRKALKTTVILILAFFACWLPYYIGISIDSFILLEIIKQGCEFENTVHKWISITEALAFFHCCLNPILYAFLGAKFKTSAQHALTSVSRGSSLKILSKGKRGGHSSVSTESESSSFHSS

For series [3], the system named is HSV-1 wild-type C559142 (clinical isolate). As to conditions: HEL cells; HSV-1 C559142; CPE.
The test system of series [4] is HIV-1 ETH2220 (clinical isolate; R5). As to conditions: PBMCs; ETH2220, group M subtype C; p24 Ag ELISA.
In series [5] the test system is HIV-1 BCF-06 (clinical isolate; X4). The conditions noted are these: PBMCs; BCF-06, group O; p27 Ag ELISA.
The next series deals with HSV-1 TK^-. The conditions noted are these: read-out: Median EC50; median over HSV-1 TK- strains; HEL cells.
The target of series [6] is T1, CXCR4. The series is described as follows: Anti-CXCR4 mAb binding on SupT1 cells (flow cytometry). The arrangement: endogenous in cells; host or cells: SupT1 T cells (ATCC). The protocol: To determine the interaction of LabyA1 with CD4, SupT1 cells (100 µl; 3×10^6 cells/ml) were incubated for 20 min at 4°C with 9.6 µM, 1.9 µM or 0 µM LabyA1. After extensive washing with PBS/FCS2% (PBS supplemented with 2% FCS), anti-CD4-PE conjugated mAbs RPA-T4 (eBioscience, Vienna, Austria), MT441 (Ancell, Enzo Life sciences) and OKT-4 (eBioscience) were added for 30 min at 4°C. For aspecific background staining, cells were incubated with SimulTest™ Control (IgGγ1-FITC/IgGγ2a-PE) (BD Biosciences). After washing, and fixation with 1% formaldehyde solution, samples were analyzed using the FACSCalibur and CellQuest software (BD Biosciences). The same protocol was applied for anti-CXCR4 evaluation using the fluorochrome conjugated mAbs 12G5-PE and 2B11-FITC (both BD Biosciences).

The test system of series [7] is HIV-1 NPO3 (clinical isolate; X4). As to conditions: PBMCs; NPO3, group M subtype E; p24 Ag ELISA.
The test system of another series is HIV-2 ROD (R5/X4). As to conditions: read-out: EC50 (µM ± SEM), PBMCs, p27 HIV-2 Ag ELISA.
Another series has as its target T2, CCR5 (Homo sapiens, UniProt P51681).
T2 construct: expressed in transfected cells; host or cells: U87.CD4.CCR5 (human astroglioma U87)
As to the kind of experiment: Intracellular calcium mobilization (FLIPR), U87.CD4.CCR5 cells. The format is cell-based. As to conditions: 9.6 µM. The protocol:
as §1

The test system of another series is HSV-1 wild-type. The conditions noted are these: read-out: Median EC50; median over HSV-1 wild-type strains; HEL cells.
Series [8] deals with HSV-1 TK^- RV-294 (clinical isolate). As to conditions: HEL cells, CPE.
The next series deals with HIV. As to conditions: read-out: anti-HIV activity EC50 range; range over all HIV strains in cell cultures.

T2 sequence (P51681 whole entry): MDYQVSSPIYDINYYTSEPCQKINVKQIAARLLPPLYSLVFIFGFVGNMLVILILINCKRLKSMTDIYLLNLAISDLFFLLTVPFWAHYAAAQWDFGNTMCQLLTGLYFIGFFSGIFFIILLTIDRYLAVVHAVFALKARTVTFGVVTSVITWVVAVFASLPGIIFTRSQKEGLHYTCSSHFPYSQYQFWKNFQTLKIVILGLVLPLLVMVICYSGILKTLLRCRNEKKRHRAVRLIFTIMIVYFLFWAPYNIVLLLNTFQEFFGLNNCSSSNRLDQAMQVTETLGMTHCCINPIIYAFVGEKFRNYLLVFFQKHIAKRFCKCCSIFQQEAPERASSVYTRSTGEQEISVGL

Turning to `C/C=C1\NC(=O)[C@H](Cc2ccccc2)NC(=O)[C@@H]2CCCN2C(=O)[C@H](C(C)C)NC(=O)[C@H](Cc2c[nH]c3ccccc23)NC(=O)[C@]23CSC[C@H](NC1=O)C(=O)N[C@H](C(=O)O)CSSC[C@H](NC(=O)[C@@H]1CSC[C@]4(C[C@H](N)C(=O)N[C@@H](CC(N)=O)C(=O)N[C@@H](C)C(=O)N4)C(=O)N[C@@H](C(C)C)C(=O)N[C@@H](Cc4c[nH]c5ccccc45)C(=O)N[C@@H](CCC(=O)O)C(=O)N1)C(=O)N[C@@H](C2)C(=O)N[C@@H]([C@@H](C)O)C(=O)NCC(=O)N3` [LabyA1, labyrinthopeptin A1], the EC50 in series [1] amounted to 1900 ± 600 nM; in series [3], 450 ± 20 nM; in [4], 780 ± 60 nM; in series [5] it was 830 ± 330 nM; in the series with HSV-1 TK^-, 1900 nM; in series [7], 1600 ± 300 nM. Besides, the EC50 in the series on HIV-2 ROD (R5/X4) was 1 ± 0.3 µM; with HSV-1 wild-type, 1600 nM; in series [8], 310 nM; in the series with HIV it was 700 to 3300 nM. Also, the “percentage of CD4+CD69+ cells” value in the series on PBMCs (untreated 1.4±0.8%) was “no significant effects”. The “percentage of CD4+CD25+ cells” value in the series with PBMCs (untreated 10.7±3.2%) is listed as “no significant effects”. Moreover, in the series with Lactobacillus strains, the “growth inhibitory effects on Lactobacillus strains” value is “no growth inhibitory effects were observed”. In addition, the “induction of calcium signaling by compound itself” value on CXCR4 [2] and at CCR5 was “could not induce by itself calcium signaling” throughout. The “inhibition of SDF-1α (CXCL12)-induced intracellular calcium flux” value at CXCR4 [2] (100 ng/ml SDF-1α) is listed as “could also not inhibit the intracellular calcium flux”. In addition, on CXCR4 [6] (SupT1 cells, 9.6 µM and 1.9 µM), the “inhibition of binding of anti-CXCR4 mAb 12G5” value is “unable to inhibit”. The “binding of anti-CXCR4 mAbs clone 12G5 and 2B11 to CXCR4” value at CXCR4 [6] (data not shown) is “did not affect the binding”. In addition, the “inhibition of LD78β (CCL3L1)-induced intracellular calcium flux” value at CCR5 (10 ng/ml LD78β) was “could also not inhibit the intracellular calcium flux”.
